Data as given in US9079854B2 (priority 2007, dated 2015).
Like-named read-outs stand apart in the source and are kept apart here.

Assays:
[1] = target: T1, human CB1 (hCB1) receptor (Homo sapiens, UniProt P21554); assay: CB1 binding assay, competitive binding of [3H]CP 55940; settings: for % Inhibition of Control Specific Binding / % of Control Specific Binding 1st / % of Control Specific Binding 2nd / % of Control Specific Binding Mean: CB1, Test Concentration 1.0E−05 (MD); for % of Control Specific Binding 1st: 1st determination; for % of Control Specific Binding 2nd: 2nd determination; for inhibition at 10 µM / inhibition at 1 µM: specific binding of [3H]-CP55940; for inhibition at 1 µM: CHO membranes
T1 construct: expressed in transfected cells; host or cells: CHO (Chinese hamster ovary) cells, membranes
Method: Cell membrane homogenates (25 μg protein) are incubated for 120 min at 37° C. with 0.5 nM [^3H]CP 55940 (the reference standard [Rinaldi-Carmona, 1996 #1320]) in the absence or presence of the test compound in a buffer containing 50 mM Tris HCl (pH 7.4), 5 mM MgCl2, 2.5 mM EDTA, and 0.3% bovine serum albumin (BSA). […]
(§1) […] [^3H]-CP55940 at a concentration of 0.5 nM and [^3H]-WIN55212 at a concentration of 0.8 nM were used as radioligands for hCB1 and hCB2 assays, respectively. The results are expressed as a percent inhibition of control specific binding. Compounds which displaced the radioligand by more than 50% for either hCB1 or hCB2 receptors were arbitrary chosen for functional activity determination.

[2] = target: T2, human CB2 (hCB2) receptor (Homo sapiens, UniProt P34972); assay: CB2 binding assay, competitive binding of [3H]WIN 55212-2; settings: for % Inhibition of Control Specific Binding / % of Control Specific Binding 1st / % of Control Specific Binding 2nd / % of Control Specific Binding Mean: CB2, Test Concentration 1.0E−05 (MD); for % of Control Specific Binding 1st: 1st determination; for % of Control Specific Binding 2nd: 2nd determination; for inhibition at 10 µM / inhibition at 1 µM: specific binding of [3H]-WIN55212-2; for inhibition at 1 µM: CHO membranes
T2 construct: expressed in transfected cells; host or cells: CHO (Chinese hamster ovary) cells, membranes
Method: Cell membrane homogenates (15 μg protein) are incubated for 120 min at 37° C. with 0.8 nM [^3H]WIN 55212-2 (the reference standard [Munro, 1993 #1321]) in the absence or presence of the test compound in a buffer containing 50 mM HEPES/Tris HCL (pH 7.4), 5 mM MgCl2, 2.5 mM EGTA, and 0.1% BSA. Nonspecific binding is determined in the presence of 10 μM WIN 55212-2. After being incubated, the samples are filtered rapidly under vacuum through glass fiber filters (GF/B; Packard) presoaked with 0.3% PEI and rinsed several times with ice-cold buffer containing 50 mM Tris HCl (pH 7.4) and 0.5% BSA using a 96-sample cell harvester (Unifilter; Packard). The filters are dried then counted for radioactivity in a scintillation counter (Topcount; Packard) using a scintillation cocktail (Microscint 0; Packard). The results are expressed as a percentage of the inhibition of the control radioligand-specific binding. The reference standard compounds are tested in each experiment at several concentrations to obtain a competition curve from which its IC50 is calculated.
as §1

[3] = target: T3, hCB2 receptor (Homo sapiens, UniProt P34972); assay: CB2 functional assay, [35S]GTP-γ-S binding; type: biochemical
T3 construct: purchased ES-111-MG; host or cells: CHO membrane extracts
Method: A dose response curve was generated at eight concentrations in duplicate on CB1 and CB2 in light of reference agonists.
Membranes (CB1, ES-110-MG or CB2, ES-111-MG) are mixed with GDP (volume:volume) and incubated for at least […] on ice. In parallel, […] are mixed with the beads (volume:volume) just before starting the reaction. The following reagents are successively added in the wells of an Optiplate: 50 μl of ligand, 20 μl of the membranes:GDP mix, 10 μl of assay buffer for agonist testing and 20 μl of the […]: beads mix. The plates are covered with a topseal, shaken on an orbital shaker for 2 min, and then incubated between 30 to 60 min at room temperature. Then the plates are centrifuged for 10 min at 2000 rpm, incubated at room temperature between 1 to 4 hours and counted for 1 min with a PerkinElmer TopCount reader.
Functional activity for acyl hydrazone was evaluated using [^35S]GTP-γ-S assay in CHO membrane extracts expressing recombinant hCB1 receptor or hCB2 receptor. The assay relies on the binding of [^35S]GTP-γ-S, a radiolabeled nonhydrolyzable GTP analogue, to the G protein upon binding of an agonist of the G-protein-coupled receptor. In this system, agonists stimulate [^35S]GTP-γ-S binding whereas neutral antagonist have no effect and inverse agonists decrease [^35S]GTP-γ-S basal binding.
CB1 and CB2 assay data are presented as the mean of two determinations. […] For replicate determinations, the maximum variability tolerated in the test was of ±20% around the average of the replicates.

[4] = at 10 μM, read-out: % inhibition hCB2 receptor
[5] = read-out: % inhibition hCB2 receptor, at 10 μM
[6] = read-out: % inhibition hCB2 receptor, at 1 μM

T1 sequence (P21554 whole entry): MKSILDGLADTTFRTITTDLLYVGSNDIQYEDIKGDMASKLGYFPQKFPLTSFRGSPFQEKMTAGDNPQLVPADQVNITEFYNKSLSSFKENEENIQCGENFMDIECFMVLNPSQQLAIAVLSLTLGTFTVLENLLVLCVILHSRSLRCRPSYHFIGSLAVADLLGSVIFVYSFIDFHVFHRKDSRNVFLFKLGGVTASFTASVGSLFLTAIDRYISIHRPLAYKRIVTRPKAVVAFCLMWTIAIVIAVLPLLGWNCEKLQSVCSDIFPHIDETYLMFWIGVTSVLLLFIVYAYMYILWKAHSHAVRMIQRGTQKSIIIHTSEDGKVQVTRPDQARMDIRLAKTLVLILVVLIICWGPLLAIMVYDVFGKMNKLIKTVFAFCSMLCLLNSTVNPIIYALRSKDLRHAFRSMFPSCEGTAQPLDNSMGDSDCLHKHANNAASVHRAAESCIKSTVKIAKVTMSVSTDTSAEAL
T2 sequence (P34972 whole entry): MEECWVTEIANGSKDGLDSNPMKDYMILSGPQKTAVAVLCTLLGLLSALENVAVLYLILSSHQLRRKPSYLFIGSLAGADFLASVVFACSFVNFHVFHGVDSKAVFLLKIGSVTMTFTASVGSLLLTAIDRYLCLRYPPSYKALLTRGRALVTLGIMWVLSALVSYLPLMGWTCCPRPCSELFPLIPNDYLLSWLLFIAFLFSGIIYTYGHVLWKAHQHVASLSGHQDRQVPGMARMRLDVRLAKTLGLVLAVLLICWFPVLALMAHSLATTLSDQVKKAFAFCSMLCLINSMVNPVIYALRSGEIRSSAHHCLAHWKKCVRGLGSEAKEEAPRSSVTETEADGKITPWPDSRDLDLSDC
T3 sequence (P34972 whole entry): as above

Row | SMILES | % of Control Specific Binding 1st [1] [%] | % of Control Specific Binding 2nd [1] [%] | % of Control Specific Binding Mean [1] [%] | inhibition at 10 µM [1] [%] | % Inhibition of Control Specific Binding [2] [%] | % of Control Specific Binding 1st [2] [%] | % of Control Specific Binding 2nd [2] [%] | % of Control Specific Binding Mean [2] [%] | inhibition at 1 µM [1] [%] | inhibition at 1 µM [2, 6] [%] | other results
1 | O=C1/C(=N\NC(=S)Nc2ccccc2)c2ccccc2N1CCC1CCCCC1 [Example 1, Phenyl thiocarbamoyl[1-(2-cyclohexyl-ethyl)-2-oxo-1,2-dihydro-indol-3-ylidene]-hydrazide] | 68.6 | 59.6 | 64.1 | < 40 | 15 | 83.3 | 87.6 | 85.4 | – | – | % Inhibition of Control Specific Binding [1]: 36%; inhibition at 10 µM [2, 4]: < 40%
2 | CCCCCCN1C(=O)/C(=N\NC(=S)Nc2ccccc2)c2ccccc21 [Example 2, Phenyl thiocarbamoyl[1-n-hexyl-2-oxo-1,2-dihydro-indol-3-ylidene]-hydrazide] | 45.8 | 56.1 | 51 | 49 ± 5.2 | 38 | 59.8 | 64.7 | 62.3 | – | – | inhibition at 10 µM [2, 4]: 37.7 ± 2.5%
3 | O=C(N/N=C1\C(=O)N(CCC2CCCCC2)c2ccccc21)Nc1ccccc1 [Example 3] | 54.1 | 78.5 | 66.3 | < 40 | −3 | 98.6 | 107.1 | 102.8 | – | – | % Inhibition of Control Specific Binding [1]: 34%; inhibition at 10 µM [2, 5]: < 40%
4 | CCCCCCN1C(=O)/C(=N\NC(=O)Nc2ccccc2)c2ccccc21 [Example 4, Phenyl carbamoyl[1-n-hexyl-2-oxo-1,2-dihydro-indol-3-ylidene]-hydrazide] | 64.3 | 61.4 | 62.9 | < 40 | −8 | 105.7 | 109.7 | 107.7 | – | – | % Inhibition of Control Specific Binding [1]: 37%; inhibition at 10 µM [2, 5]: < 40%
5 | O=C1/C(=N\NS(=O)(=O)c2ccccc2)c2ccccc2N1CCC1CCCCC1 [Example 8] | 77.2 | 90 | 83.6 | < 40 | 9 | 89.2 | 93.3 | 91.2 | – | – | % Inhibition of Control Specific Binding [1]: 16%; inhibition at 10 µM [2, 4]: < 40%
6 | CCCCCCN1C(=O)/C(=N\NS(=O)(=O)c2ccccc2)c2ccccc21 [Example 9, Phenyl sulfonyl[1-n-hexyl-2-oxo-1,2-dihydro-indol-3-ylidene]-hydrazide] | 87.7 | 96.1 | 91.9 | < 40 | −14 | 126.5 | 100.6 | 113.5 | – | – | % Inhibition of Control Specific Binding [1]: 8%; inhibition at 10 µM [2, 4]: < 40%
7 | CCCCCCN1C(=O)/C(=N\NC(=O)CCCCC)c2ccccc21 [Example 12, N′-[(3Z)-1-hexyl-2-oxo-1,2-dihydro-3H-indol-3-ylidene]hexanohydrazide] | – | – | – | – | – | – | – | – | 45.2 ± 9.5 | 36.6 ± 8.8 | –
8 | CCCCCCN1C(=O)/C(=N\NC(=O)c2ccc(Cl)cc2)c2ccccc21 [Example 13, 4-chloro-N′-[(3Z)-1-hexyl-2-oxo-1,2-dihydro-3H-indol-3-ylidene]benzohydrazide] | – | – | – | – | – | – | – | – | 46.6 ± 4.3 | 32.7 ± 5.3 | –
9 | CCCCCCN1C(=O)/C(=N\NC(=O)c2ccc3ccccc3c2)c2ccccc21 [Example 16, N′-[(3Z)-1-hexyl-2-oxo-1,2-dihydro-3H-indol-3-ylidene]-2-naphthohydrazide] | – | – | – | – | – | – | – | – | < 30 | < 30 | –
10 | CCCCCCN1C(=O)/C(=N\NC(=O)c2cc3ccccc3s2)c2ccccc21 [Example 18, N′-[(3Z)-1-hexyl-2-oxo-1,2-dihydro-3H-indol-3-ylidene]-1-benzothiophene-2-carbohydrazide] | – | – | – | – | – | – | – | – | < 30 | < 30 | –
11 | CCCCCCCCCCCCN1C(=O)/C(=N\NC(=O)c2ccccc2)c2ccccc21 [Example 24, N′-[(3Z)-1-(1-dodecyl)-2-oxo-1,2-dihydro-3H-indol-3-ylidene]benzohydrazide] | – | – | – | – | – | – | – | – | 23.8 ± 4.5 | 24.3 ± 4.1 | –
12 | O=C(N/N=C1\C(=O)N(CCN2C(=O)c3ccccc3C2=O)c2ccccc21)c1ccccc1 [Example 27, N′-{[3Z]-1-[2-(1,3-dioxo-1,3-dihydro-2H-isoindol-2-yl)ethyl]-2-oxo-1,2-dihydro-3H-indol-3-ylidene}benzohydrazide] | – | – | – | – | – | – | – | – | 3 ± 4.1 | – | inhibition at 1 µM ([2]; at 1 μM, read-out: % inhibition hCB2 receptor): 3 ± 3.2%
13 | CCCCCCN1C(=O)/C(=N\NC(=O)c2ccccc2)c2cc(C)ccc21 [Example 31, N′-[(3Z)-1-hexyl-5-methyl-2-oxo-1,2-dihydro-3H-indol-3-ylidene]benzohydrazide] | – | – | – | – | – | – | – | – | 22 ± 0.9 | 1 ± 2.7 | –
14 | CCCCCCN1C(=O)/C(=N\NC(=O)c2ccccc2)c2cc(OC)ccc21 [Example 32, N′-[(3Z)-1-hexyl-5-methoxy-2-oxo-1,2-dihydro-3H-indol-3-ylidene]benzohydrazide] | – | – | – | – | – | – | – | – | 26 ± 3.1 | 17 ± 1.2 | –
15 | CCCCCCN1C(=O)/C(=N\NC(=O)c2ccccc2)c2cc(Cl)ccc21 [Example 34, N′-[(3Z)-5-chloro-1-hexyl-2-oxo-1,2-dihydro-3H-indol-3-ylidene]benzohydrazide] | – | – | – | – | – | – | – | – | 9 ± 1.4 | 6 ± 1.4 | –
16 | CCCCCN1C(=O)/C(=N\NC(=O)c2ccccc2)c2cc(I)ccc21 [Example 35, N′-[(3Z)-5-iodo-2-oxo-1-pentyl-1,2-dihydro-3H-indol-3-ylidene]benzohydrazide] | – | – | – | – | – | – | – | – | 25 ± 0.2 | 10 ± 0.2 | –
17 | CCCCCCN1C(=O)/C(=N\NC(=O)c2ccccc2)c2ccc(OC)cc21 [Example 36, N′-[(3Z)-1-hexyl-6-methoxy-2-oxo-1,2-dihydro-3H-indol-3-ylidene]benzohydrazide] | – | – | – | – | – | – | – | – | – | – | EC50 [3]: 0.085 µM; Emax ([3]; Table 10, repeated experiment): -95%
18 | COc1ccc2c(c1)N(Cc1ccccc1)C(=O)/C2=N\NC(=O)c1ccccc1 [Example 38, N′-[(3Z)-1-benzyl-6-methoxy-2-oxo-1,2-dihydro-3H-indol-3-ylidene]benzohydrazide] | – | – | – | – | – | – | – | – | – | – | Emax ([3]; Table 10, repeated experiment): -96%; EC50 ([3]; Table 10, repeated experiment, read-out: [35S]GTP-γ-S hCB2 EC50): 0.102 µM
